Test results reported in PubChem BioAssay (NCI).
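Compound exposure: 48 hours, 5 concentrations, 96-well plates. TGI is the concentration that stops growth completely.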

Tests used:
Experiment in all cases: NCI tumour cell line growth inhibition, 48 h
SNB-19 CNS = system: SNB-19 CNS
M19-MEL melanoma = system: M19-MEL melanoma
SN12C renal = system: SN12C renal
OVCAR-3 ovarian = system: OVCAR-3 ovarian
P388 leukemia = system: P388 leukemia
HL-60(TB) leukemia = system: HL-60(TB) leukemia
IGROV1 ovarian = system: IGROV1 ovarian
MALME-3M melanoma = system: MALME-3M melanoma
SK-MEL-5 melanoma = system: SK-MEL-5 melanoma
CAKI-1 renal = system: CAKI-1 renal
MOLT-4 leukemia = system: MOLT-4 leukemia
NCI-H23 lung = system: NCI-H23 lung
U251 CNS = system: U251 CNS
SF-268 CNS = system: SF-268 CNS
P388/ADR leukemia = system: P388/ADR leukemia
OVCAR-5 ovarian = system: OVCAR-5 ovarian
NCI-H522 lung = system: NCI-H522 lung
K-562 leukemia = system: K-562 leukemia
MCF7 breast = system: MCF7 breast
A549 NSCLC = system: A549 NSCLC
HOP-18 NSCLC = system: HOP-18 NSCLC
HOP-92 NSCLC = system: HOP-92 NSCLC
SK-OV-3 ovarian = system: SK-OV-3 ovarian
UACC-62 melanoma = system: UACC-62 melanoma
UACC-257 melanoma = system: UACC-257 melanoma
EKVX NSCLC = system: EKVX NSCLC
HOP-62 NSCLC = system: HOP-62 NSCLC
SN12K1 renal = system: SN12K1 renal
SF-295 CNS = system: SF-295 CNS
SK-MEL-28 melanoma = system: SK-MEL-28 melanoma
RXF 393 renal = system: RXF 393 renal
RPMI-8226 leukemia = system: RPMI-8226 leukemia
LOX IMVI melanoma = system: LOX IMVI melanoma
SNB-75 CNS = system: SNB-75 CNS
KM20L2 colon = system: KM20L2 colon
SNB-78 CNS = system: SNB-78 CNS
HCC-2998 colon = system: HCC-2998 colon
NCI-H460 lung = system: NCI-H460 lung
OVCAR-8 ovarian = system: OVCAR-8 ovarian
COLO 205 colon = system: COLO 205 colon
NCI/ADR-RES ovarian = system: NCI/ADR-RES ovarian
NCI-H226 lung = system: NCI-H226 lung
A498 renal = system: A498 renal
HCT-116 colon = system: HCT-116 colon
UO-31 renal = system: UO-31 renal
KM12 colon = system: KM12 colon
SF-539 CNS = system: SF-539 CNS
DMS 114 small cell lung = system: DMS 114 small cell lung
DMS 273 small cell lung = system: DMS 273 small cell lung
HCT-15 colon = system: HCT-15 colon
OVCAR-4 ovarian = system: OVCAR-4 ovarian
SK-MEL-2 melanoma = system: SK-MEL-2 melanoma
HT29 colon = system: HT29 colon

COC(=O)C[C@](O)(CCC(C)(C)O)C(=O)O[C@@H]1C(OC)=C[C@]23CCCN2CCc2cc4c(cc2[C@H]13)OCO4
TGI (SNB-19 CNS): 280 nM | TGI (M19-MEL melanoma): 363 nM | TGI (SN12C renal): 1070 nM | TGI (OVCAR-3 ovarian): 459 nM | TGI (P388 leukemia): 133 nM | TGI (HL-60(TB) leukemia): 743 nM | TGI (IGROV1 ovarian): 506 nM | TGI (MALME-3M melanoma): 109 nM | TGI (SK-MEL-5 melanoma): 202 nM | TGI (CAKI-1 renal): 1640 nM | TGI (MOLT-4 leukemia): > 100000 nM | TGI (NCI-H23 lung): 323 nM | TGI (U251 CNS): 379 nM | TGI (SF-268 CNS): 496 nM | TGI (P388/ADR leukemia): > 100000 nM | TGI (OVCAR-5 ovarian): 1080 nM | TGI (NCI-H522 lung): 59.7 nM | TGI (K-562 leukemia): > 100000 nM | TGI (MCF7 breast): 113 nM | TGI (A549 NSCLC): 450 nM | TGI (HOP-18 NSCLC): 756 nM | TGI (HOP-92 NSCLC): 653 nM | TGI (SK-OV-3 ovarian): 915 nM | TGI (UACC-62 melanoma): 1120 nM | TGI (UACC-257 melanoma): 537 nM | TGI (EKVX NSCLC): 430 nM | TGI (HOP-62 NSCLC): 590 nM | TGI (SN12K1 renal): 359 nM | TGI (SF-295 CNS): 610 nM | TGI (SK-MEL-28 melanoma): 294 nM | TGI (RXF 393 renal): 518 nM | TGI (RPMI-8226 leukemia): 701 nM | TGI (LOX IMVI melanoma): 426 nM | TGI (SNB-75 CNS): 950 nM | TGI (KM20L2 colon): 740 nM | TGI (SNB-78 CNS): 1040 nM | TGI (HCC-2998 colon): 85.5 nM | TGI (NCI-H460 lung): 79.3 nM | TGI (OVCAR-8 ovarian): 571 nM | TGI (COLO 205 colon): 255 nM | TGI (NCI/ADR-RES ovarian): 59800 nM | TGI (NCI-H226 lung): 124 nM | TGI (A498 renal): 260 nM | TGI (HCT-116 colon): 150 nM | TGI (UO-31 renal): 7010 nM | TGI (KM12 colon): 1210 nM | TGI (SF-539 CNS): 102 nM | TGI (DMS 114 small cell lung): 59.7 nM | TGI (DMS 273 small cell lung): 131 nM | TGI (HCT-15 colon): 2070 nM | TGI (OVCAR-4 ovarian): 478 nM | TGI (SK-MEL-2 melanoma): 407 nM | TGI (HT29 colon): 1060 nM
